Measured values taken from patent US7868023B2, “Thiophene sulfoximines, compositions thereof, and methods of treating complement-mediated diseases and conditions” (Janssen Pharmaceutica NV, priority 2005, dated 2011).

Columns and labels:
activated human C1s = target: T1, activated human C1s (Homo sapiens, UniProt P09871); assay: In vitro inhibition of C1s (Ki determination, Z-Gly-Arg-S-Bzl hydrolysis, DTNB readout); type: biochemical; conditions: substrate Z-Gly-Arg-S-Bzl 45 μM, 37° C., pH 7.5
T1 construct: purchased Calbiochem (La Jolla, Calif.)
T1 sequence (P09871 438-688 limits assumed): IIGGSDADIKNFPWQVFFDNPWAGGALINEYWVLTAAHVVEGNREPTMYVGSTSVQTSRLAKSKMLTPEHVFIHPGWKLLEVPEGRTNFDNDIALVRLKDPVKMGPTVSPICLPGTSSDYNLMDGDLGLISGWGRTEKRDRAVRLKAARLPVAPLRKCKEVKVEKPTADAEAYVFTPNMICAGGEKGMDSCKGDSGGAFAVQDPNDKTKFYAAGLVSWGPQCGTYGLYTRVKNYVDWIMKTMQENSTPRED
T1 sequence (P09871 16-437 limits assumed): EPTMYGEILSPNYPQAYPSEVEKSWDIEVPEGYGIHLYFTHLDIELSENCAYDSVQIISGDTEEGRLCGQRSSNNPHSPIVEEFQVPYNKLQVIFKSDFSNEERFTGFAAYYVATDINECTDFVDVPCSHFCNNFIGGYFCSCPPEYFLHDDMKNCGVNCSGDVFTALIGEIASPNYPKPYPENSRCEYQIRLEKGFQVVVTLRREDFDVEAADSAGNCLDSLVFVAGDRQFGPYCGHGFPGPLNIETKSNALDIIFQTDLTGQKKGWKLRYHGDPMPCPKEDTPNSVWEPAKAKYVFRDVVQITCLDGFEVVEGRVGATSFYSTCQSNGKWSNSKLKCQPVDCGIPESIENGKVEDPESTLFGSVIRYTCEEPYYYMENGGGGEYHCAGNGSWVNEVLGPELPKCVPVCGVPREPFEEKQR
Excerpt: Reagents: All buffer salts were obtained from Sigma Chemical Company (St. Louis, Mo.), and were of the highest purity available. DTNB was purchased from Pierce (Rockford, Ill.). Z-Gly-Arg-S-Bzl was purchased from Enzyme Systems Products (Livermore, Calif.). Activated human C1s was purchased from Calbiochem (La Jolla, Calif.).
Ki Determinations All assays were based on the ability of the test compound to inhibit the C1s-catalyzed hydrolysis of the substrate Z-Gly-Arg-S-Bzl, which was observed via a secondary reaction with 5,5′-dithio-bis(2-nitrobenzoic acid) (DTNB). […]
(§1) In a typical Ki determination, into each well of a 96-well plate was pipetted 280 μL of substrate solution, 10 μL of test compound solution, and the plate allowed to thermally equilibrate at 37° C. for 15 minutes. Reactions were initiated by the addition of a 10 μL aliquot of the enzyme, and the absorbance increase at 405 nm was continuously recorded for 15 minutes in a Molecular Devices plate reader. […] The ratio of the velocity (rate of change in absorbance as a function of time) for a sample containing no test compound was divided by the velocity of a sample containing test compound, and was plotted as a function of test compound concentration. The data were fit to a linear regression, and the value of the slope of the line calculated. The inverse of the slope was the experimentally determined Ki value.

human MASP-2 = target: T2, human MASP-2 (Homo sapiens, UniProt O00187); assay: In vitro inhibition of MASP-2 (Ki determination, Z-Gly-Arg-S-Bzl hydrolysis, DTNB readout); type: biochemical; conditions: substrate Z-Gly-Arg-S-Bzl 45 μM, 37° C., pH 7.5; Ki app corrected for true Ki
T2 construct: His-tag; made in house; host or cells: Baculovirus expression system in insect cells
Excerpt: Reagents: All buffer salts were obtained from Sigma Chemical Company (St. Louis, Mo.), and were of the highest purity available. DTNB was purchased from Pierce (Rockford, Ill.). Z-Gly-Arg-S-Bzl was purchased from Enzyme Systems Products (Livermore, Calif.). Autoactivated 2-chain human MASP-2 (His-tag, Cys300-Phe686) was produced in-house from a Baculovirus expression system in insect cells.
Ki Determinations All assays were based on the ability of the test compound to inhibit the MASP-2-catalyzed hydrolysis of the substrate Z-Gly-Arg-S-Bzl, which was observed via a secondary reaction with 5,5′-dithio-bis(2-nitrobenzoic acid) (DTNB). […]
as §1, with “of substrate solution followed by 10 μL” for “of substrate solution, 10 μL”, “the plate was allowed to” for “the plate allowed to”, “C. for 10 minutes. Reactions” for “C. for 15 minutes. Reactions”, “line calculated. […]” for “line calculated. The inverse of the slope was the experimentally determined Ki value.”

T2 sequence (O00187 300-686): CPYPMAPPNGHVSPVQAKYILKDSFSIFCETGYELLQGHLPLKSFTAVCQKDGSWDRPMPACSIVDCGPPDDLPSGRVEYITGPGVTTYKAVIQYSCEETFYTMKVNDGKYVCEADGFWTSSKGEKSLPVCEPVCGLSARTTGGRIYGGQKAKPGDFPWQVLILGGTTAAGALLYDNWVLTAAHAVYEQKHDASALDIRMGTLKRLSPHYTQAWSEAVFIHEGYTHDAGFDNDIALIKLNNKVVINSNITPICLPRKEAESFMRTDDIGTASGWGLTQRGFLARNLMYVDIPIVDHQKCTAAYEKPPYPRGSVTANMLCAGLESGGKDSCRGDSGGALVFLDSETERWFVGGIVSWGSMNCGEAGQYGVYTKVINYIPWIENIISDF
T2 sequence (O00187 300-444): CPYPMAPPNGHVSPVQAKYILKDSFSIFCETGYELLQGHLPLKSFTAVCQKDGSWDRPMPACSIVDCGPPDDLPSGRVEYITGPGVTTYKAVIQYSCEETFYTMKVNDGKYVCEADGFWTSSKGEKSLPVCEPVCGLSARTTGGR

Question: Which Ki (activated human C1s) does the source give for `CSc1sc(C(=N)N)cc1S(=O)(=NS(=O)(=O)c1cccc([N+](=O)[O-])c1)c1cccc(-c2ccc(NC(=N)N)cc2C)c1` (stereo not drawn) [Example 46, 4-[S-[3-(4-guanidino-6-methyl-phenyl)phenyl]-N-(3-nitrobenzene-sulfonyl)sulfoximino]-5-methylsulfanyl-thiophene-2-carboxamidine bistrifluoroacetate] here?
Answer: 10 nM

Question: With `CSc1sc(C(=N)N)cc1S(=O)(=NS(=O)(=O)c1cccc(NC(N)=O)c1)c1cccc(-c2c(C)cc(NC(=N)N)cc2N)c1` (stereo not drawn) [Example 18, 4-[S-[3-(2-Amino-4-guanidino-6-methyl-phenyl)phenyl]-N-(3-ureidobenzene-sulfonyl)sulfoxamino]-5-methylsulfanyl-thiophene-2-carboxamidine bistrifluoroacetate] as the compound, how does the Ki (human MASP-2) read?
Answer: 440 nM

Question: What about the Ki (activated human C1s) of the same compound?
Answer: 11 nM
